PubChem BioAssay AID1360 (Sanford-Burnham Center for Chemical Genomics, 2008)
The source made the active and inactive calls.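 How the source made its calls: active means no phosphorylated c-Jun band on immunoblot of thapsigargin-stressed cells, like the unstressed control; inactive means a phosphorylated c-Jun band visible, like the stressed control.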

The molecules below were run on CSM14.1 cells, phospho-c-Jun Western blot, thapsigargin (assay: inhibitors of thapsigargin-driven c-Jun phosphorylation, mechanism study for ER stress cell death inhibitors, CSM14.1 cells, Western blot (AID 1360)).
With `CCOc1cccc(C2Nc3ccccc3NC3=C2C(=O)CC(c2ccc(OC)cc2)C3)c1` (stereo unspecified) the outcome was “active”.
With `CC1(C)CC(=O)C2=C(C1)Nc1ccccc1NC2c1ccc(-c2ccccc2)cc1` (stereo unspecified) the outcome was “active”.
In the case of `CSc1ccc(C2Nc3ccccc3NC3=C2C(=O)CC(c2ccccc2)C3)cc1` (stereo unspecified), the outcome is reported as “active”.
With `COc1ccc(C2CC(=O)C3=C(C2)Nc2ccccc2NC3c2cccc(Br)c2)cc1OC` (stereo unspecified) the outcome was “active”.
`O=C1CC(c2ccccc2)CC2=C1C(c1c(F)cccc1Cl)Nc1ccccc1N2` (stereo unspecified) was tested, and the outcome was “active”.
In the case of `CCCOc1ccc(C2Nc3ccccc3NC3=C2C(=O)CC(c2ccc(OC)c(OC)c2)C3)cc1` (stereo unspecified), the outcome is reported as “active”.
In the case of `COc1ccc(C2CC(=O)C3=C(C2)Nc2ccccc2NC3c2cc(C)ccc2C)cc1` (stereo unspecified), the outcome is reported as “active”.
In the case of `COc1ccc(C2CC(=O)C3=C(C2)Nc2ccccc2NC3c2cccc(C(F)(F)F)c2)cc1OC` (stereo unspecified), the outcome is reported as “active”.
`CCOc1cc(C2Nc3ccccc3NC3=C2C(=O)CC(c2ccc(OC)cc2)C3)cc(Cl)c1O` (stereo unspecified) was tested, and the outcome was “active”.
`COc1ccc(C2CC(=O)C3=C(C2)Nc2ccccc2NC3c2cccc(Oc3ccccc3)c2)cc1OC` (stereo unspecified) was tested, and the outcome was “active”.
For `COc1ccc(C2CC(=O)C3=C(C2)Nc2ccccc2NC3c2ccccc2C(F)(F)F)cc1OC` (stereo unspecified), the outcome was “active”.
